Measurements as given in ChEMBL document CHEMBL1158007, “Steroidal glycosides from the bulbs of Allium jesdianum” (J Nat Prod, 1999).

Assays:
Type in all cases: functional
[1] = tested on: CCRF-CEM; assay: Growth inhibition of human CCRF-CEM cells after 72 hrs by MTT assay
[2] = tested on: HCT-15; assay: Growth inhibition of human HCT-15 cells after 72 hrs by MTT assay; conditions: HCT-15, 72 h
[3] = tested on: OVCAR-5; assay: Growth inhibition of human OVCAR5 cells after 72 hrs by MTT assay; conditions: OVCAR-5, 72 h
[4] = tested on: DU-145; assay: Growth inhibition of human DU-145 cells after 72 hrs by MTT assay; conditions: DU-145, 72 h
[5] = tested on: KM12; assay: Growth inhibition of human KM12 cells after 72 hrs by MTT assay; conditions: KM12, 72 h
[6] = tested on: HCC 2998; assay: Growth inhibition of human HCC2998 cells after 72 hrs by MTT assay; conditions: HCC 2998, 72 h
[7] = tested on: MOLT-4; assay: Growth inhibition of human MOLT-4 cells after 72 hrs by MTT assay; conditions: MOLT-4, 72 h
[8] = tested on: HT-29; assay: Growth inhibition of human HT-29 cells after 72 hrs by MTT assay; conditions: HT-29, 72 h
[9] = tested on: NCI-H460; assay: Growth inhibition of human NCI-H460 cells after 72 hrs by MTT assay; conditions: NCI-H460, 72 h
[10] = Growth inhibition of human HCT 116 cells after 72 hrs by MTT assay; conditions: HCT-116, 72 h
[11] = tested on: IGROV-1; assay: Growth inhibition of human IGROV1 cells after 72 hrs by MTT assay; conditions: IGROV-1, 72 h
[12] = tested on: Malme-3M; assay: Growth inhibition of human MALME-3M cells after 72 hrs by MTT assay
[13] = tested on: UACC-62; assay: Growth inhibition of human UACC-62 cells after 72 hrs by MTT assay; conditions: UACC-62, 72 h
[14] = tested on: OVCAR-3; assay: Growth inhibition of human OVCAR-3 cells after 72 hrs by MTT assay; conditions: OVCAR-3, 72 h
[15] = tested on: LOX IMVI; assay: Growth inhibition of human LOX IMVI cells after 72 hrs by MTT assay
[16] = tested on: A549; assay: Growth inhibition of human A549 cells after 72 hrs by MTT assay; conditions: A549, 72 h
[17] = tested on: K562; assay: Growth inhibition of human K-562 cells after 72 hrs by MTT assay; conditions: K562, 72 h, read-out: LC50 (the source's name)
[18] = tested on: NCI-H322M; assay: Growth inhibition of human NCI-H322M cells after 72 hrs by MTT assay
[19] = tested on: RPMI-8226; assay: Growth inhibition of human RPMI 8226 cells after 72 hrs by MTT assay; conditions: RPMI-8226, 72 h
[20] = tested on: MDA-MB-435; assay: Growth inhibition of human MDA-MB-435 cells after 72 hrs by MTT assay; conditions: MDA-MB-435, 72 h
[21] = tested on: SNB-75; assay: Growth inhibition of human SNB-75 cells after 72 hrs by MTT assay; conditions: SNB-75, 72 h
[22] = tested on: SNB-19; assay: Growth inhibition of human SNB-19 cells after 72 hrs by MTT assay; conditions: SNB-19, 72 h
[23] = read-out: LC50 (the source's name)

With `C[C@@H]1CC[C@@]2(OC1)O[C@H]1C[C@H]3[C@@H]4CC[C@H]5C[C@@H](O[C@@H]6O[C@H](CO)[C@H](O[C@@H]7O[C@H](CO)[C@@H](O)[C@H](O[C@@H]8OC[C@@H](O)[C@H](O)[C@H]8O)[C@H]7O[C@@H]7O[C@H](CO)[C@@H](O)[C@H](O)[C@H]7O)[C@H](O)[C@H]6O)[C@H](O)C[C@]5(C)[C@H]4CC[C@]3(C)[C@H]1[C@@H]2C` the GI50 [1] was 0.25 µM, the TGI [1] was 0.55 µM and the CC50 [1, 23] was 2 µM. The GI50 [2] was 1.4 µM, the TGI [2] was 11 µM and the CC50 [2, 23] was 46 µM. For the same molecule, the GI50 [3] was 5 µM, the TGI [3] was 20 µM and the CC50 [3, 23] was 59 µM. For the same molecule, the GI50 [4] was 2.4 µM, the TGI [4] was 14 µM and the CC50 [4, 23] was 54 µM. It also gave a GI50 [5] of 8.9 µM, a TGI [5] of 23 µM and a CC50 [5, 23] of 55 µM. The GI50 [6] was 12 µM, the TGI [6] was 25 µM and the CC50 [6, 23] was 50 µM. For the same molecule, the GI50 [7] was 41 µM, the TGI [7] was 97 µM and the CC50 [7, 23] was less than 100 µM. The GI50 [8] was 1.1 µM, the TGI [8] was 3.1 µM and the GI50 [9] was 1.3 µM. For the same molecule, the TGI [9] was 4.2 µM, the CC50 [9, 23] was 16 µM and the GI50 [10] was 3.9 µM. For the same molecule, the TGI [10] was 18 µM, the CC50 [10, 23] was 81 µM and the GI50 [11] was 3.7 µM. For the same molecule, the TGI [11] was 17 µM, the CC50 [11, 23] was 48 µM and the GI50 [12] was 19 µM. It also gave a TGI [12] of 35 µM, a CC50 [12, 23] of 69 µM and a GI50 [13] of 17 µM. The TGI [13] was 42 µM, the CC50 [13, 23] was less than 100 µM and the GI50 [14] was 2.6 µM. For the same molecule, the TGI [14] was 9.1 µM, the CC50 [14, 23] was 35 µM and the GI50 [15] was 1.4 µM. For the same molecule, the TGI [15] was 7.9 µM, the GI50 [16] was 0.35 µM and the CC50 [16, 23] was less than 100 µM. The CC50 [17] was less than 100 µM, the GI50 [18] was 12 µM and the TGI [18] was 26 µM. It also gave a CC50 [18, 23] of 55 µM, a GI50 [19] of 0.79 µM and a TGI [19] of 23 µM. The CC50 [19, 23] was 81 µM, the GI50 [20] was 11 µM and the TGI [20] was 26 µM. For the same molecule, the CC50 [20, 23] was 66 µM, the GI50 [21] was 14 µM and the TGI [21] was 28 µM. For the same molecule, the CC50 [21, 23] was 59 µM, the GI50 [22] was 12 µM and the TGI [22] was 27 µM. The CC50 [22, 23] was 60 µM.
